These results are taken from patent US20020086862A1, “Novel compounds” (AstraZeneca AB, priority 1998, published 2002).

In turn, `Cc1ccc(Cn2nc(-c3ccccc3Cl)[nH]c2=S)cc1` [Example 50, 5-(2-Chlorophenyl)-1,2-dihydro-2-(4-methylphenyl)methyl-3H-1,2,4-triazole-3-thione] yielded a melting point of 162 to 163 °C.

As to `S=c1[nH]c(-c2ccccc2)nn1Cc1cccc(Cl)c1` [Example 57, 2-[(3-Chlorophenyl)methyl]-5-phenyl-1,2-dihydro-3H-1,2,4-triazole-3-thione], the melting point worked out at 213 °C.

`Cc1ccc(-c2nn(Cc3cccc(Cl)c3)c(=S)[nH]2)cc1` [Example 47, 2-[(3-Chlorophenyl)methyl]-5-(4-methylphenyl)-1,2-dihydro-3H-1,2,4-triazole-3-thione] came in with a melting point of 207 to 208 °C. Consider `S=c1[nH]c(-c2cncnc2)nn1Cc1cccc(Cl)c1` [Example 63, 2-[(3-Chlorophenyl)methyl]-5-(pyrrndin-5-yl) 1,2-dihydro-3H-1,2,4-triazole-3-thione], for which the melting point lay within 204 to 207 °C. Compound `S=c1[nH]c(-c2ccc(Cl)c(Cl)c2)nn1Cc1ccccc1` [Example 25, 5-(3,4-Dichlorophenyl)-1,2-dihydro-2-(phenylmethyl)-3H-1,2,4-triazole-3-thione] gave a melting point of 227 to 228 °C. Regarding `N#Cc1cccc(Cn2nc(-c3ccccc3Cl)[nH]c2=S)c1` [Example 64, 5-(2-Chlorophenyl)-1,2-dihydro-2-[(3-cyanophenyl)methyl]-3H-1,2,4-triazole-3-thione], the melting point lay in the range of 161 to 163 °C. `S=c1[nH]c(-c2ccc(Br)cc2)nn1Cc1cccc(Cl)c1` [Example 46, 5-(4-Bromophenyl)-2-[(3-chlorophenyl)methyl]-1,2-dihydro-3H-1,2,4-triazole-3-thione] came in with a melting point of 242 to 243 °C. Take `S=c1[nH]c(-c2cccc(Cl)c2)nn1Cc1ccccc1` [Example 5, 5-(3-Chlorophenyl)-1,2-dihydro-2-(phenylmethyl)-3H-1,2,4-triazole-3-thione]: the melting point was 175 to 176 °C.

Regarding `CC(C)(C)c1ccc(Cn2nc(-c3ccccc3Cl)[nH]c2=S)cc1` [Example 51, 5-(2-Chlorophenyl)-1,2-dihydro-2-[(4(1,1-dimethylethyl)phenyl)methyl]-3H-1,2,4-triazole-3-thione], the melting point lay in the range of 211 to 215 °C. `COc1ccc(-c2nn(Cc3cccc(Cl)c3)c(=S)[nH]2)cc1` [Example 48, 2-[(3-Chlorophenyl)methyl]-5-(4-methoxyphenyl)-1,2-dihydro-3H-1,2,4-triazole-3-thione] yielded a melting point of 231 to 233 °C. Compound `S=c1[nH]c(-c2ccc(Br)cc2)nn1Cc1ccccc1` [Example 26, 5-(4-Bromophenyl)-1,2-dihydro-2-(phenylmethyl)-3H-1,2,4-triazole-3-thione] yielded a melting point of 250 to 251 °C.

Regarding `S=c1[nH]c(-c2ccccc2Cl)nn1Cc1cccc(Oc2ccccc2)c1` [Example 52, 5-(2-Chlorophenyl)-1,2-dihydro-2-[(3-phenyloxy)phenylmethyl]-3H-1,2,4-triazole-3-thione], the melting point lay in the range of 137 to 138 °C. On to `COc1ccc(-c2nn(Cc3ccccc3)c(=S)[nH]2)cc1` [Example 23, 1,2-Dihydro-5-(4-methoxyphenyl)-2-(phenylmethyl)-3H-1,2,4-triazole-3-thione], for which the melting point fell in the range of 235 to 237 °C. Compound `CSc1ccccc1-c1nn(Cc2ccccc2)c(=S)[nH]1` [Example 38, 1,2-Dihydro-5-[2-(methylthio)phenyl]-2-(phenylmethyl)-3H-1,2,4-triazole-3-thione] came in with a melting point of 170 to 171 °C. For `COc1cccc(Cn2nc(-c3ccc(Cl)cc3Cl)[nH]c2=S)c1` [Example 33, 5-(2,4-Dichlorophenyl)-1,2-dihydro-2-[(3-methoxyphenyl)methyl]-3H-1,2,4-triazole-3-thione], the melting point is 173 to 174 °C. Compound `S=c1[nH]c(-c2ccccc2Br)nn1Cc1ccccc1` [Example 9, 5-(2-Bromophenyl)-1,2-dihydro-2-(phenylmethyl)-3H-1,2,4-triazole-3-thione] returned a melting point of 139 to 140 °C. Consider `N#Cc1ccc(-c2nn(Cc3ccccc3)c(=S)[nH]2)cc1` [Example 7, 5-(4-Cyanophenyl)-1,2-dihydro-2-(phenylmethyl)-3H-1,2,4-triazole-3-thione], for which the melting point fell in the range of 237 to 238 °C. With `S=c1[nH]c(-c2cc(Cl)sc2Cl)nn1Cc1ccccc1` [Example 13, 5-(2,5-Dichloro-3-thienyl)-1,2-dihydro-2-(phenylmethyl)-3H-1,2,4-triazole-3-thione], the melting point lay within 160 to 162 °C. Compound `Fc1ccc(F)c(Cn2nc(-c3ccccc3Cl)[nH]c2=S)c1` [Example 61, 5-(2-Chlorophenyl)-1,2-dihydro-2-[(2,5-difluorophenyl)methyl]-3H-1,2,4-triazole-3-thione] yielded a melting point of 161 to 163 °C. The same measure for `Cc1ccccc1-c1nn(Cc2ccccc2)c(=S)[nH]1` [Example 19, 1,2-Dihydro-5-(2-methylphenyl)-2-(phenylmethyl)-3H-1,2,4-triazole-3-thione]: 150 to 153 °C; for `COc1ccccc1-c1nn(Cc2ccccc2)c(=S)[nH]1` [Example 18, 1,2-Dihydro-5-(2-methoxyphenyl)-2-(phenylmethyl)-3H-1,2,4-triazole-3-thione]: 142 to 143.5 °C; for `COC(=O)c1ccc(-c2nn(Cc3ccccc3)c(=S)[nH]2)cc1` [Example 3, 4-[1,2-Dihydro-1-(phenylmethyl)-5-thioxo-3H-1,2,4-triazol-3-yl]benzoic acid, methyl ester]: more than 215 °C.

`S=c1[nH]c(-c2ccc(Oc3ccccc3)cc2)nn1Cc1cccc(Cl)c1` [Example 55, 2-[(3-Chlorophenyl)methyl]-5-(4-phenoxyphenyl)-1,2-dihydro-3H-1,2,4-triazole-3-thione]: the melting point was 183 to 184 °C.

Compound `Fc1ccc(-c2nn(Cc3ccccc3)c(=S)[nH]2)c(Cl)c1` [Example 22, 5-(2-Chloro-4-fluorophenyl)-1,2-dihydro-2-(phenylmethyl)-3H-1,2,4-triazole-3-thione] came in with a melting point of 135 to 136 °C. `Cc1cccc(Cn2nc(-c3ccc(Cl)cc3Cl)[nH]c2=S)c1` [Example 43, 5-(2,4-Dichlorophenyl)-1,2-dihydro-2-[(3-methylphenyl)methyl]-3H-1,2,4-triazole-3-thione]: the melting point lay in the range of 177 to 178 °C. The same measure for `O=[N+]([O-])c1ccc(Cn2nc(-c3ccccc3Cl)[nH]c2=S)cc1` [Example 65, 5-(2-Chlorophenyl)-1,2-dihydro-2-[(4-nitrophenyl)methyl]-3H-1,2,4-triazoe-3-thione]: 182 to 183 °C; for `S=c1[nH]c(-c2ccccc2Cl)nn1Cc1cccc(Cl)c1` [Example 42, 5-(2-Chlorophenyl)-2-[(3-chlorophenyl)methyl]-1,2-dihydro-3H-1,2,4-triazole-3-thione]: 143 to 143.5 °C. As for `S=c1[nH]c(-c2cccc(Oc3ccccc3)c2)nn1Cc1ccccc1` [Example 30, 1,2-Dihydro-5-(3-phenoxyphenyl)-2-(phenylmethyl)-3H-1,2,4-triazole-3-thione], the melting point lay within 200 to 202 °C. The same measure for `O=[N+]([O-])c1ccc(-c2nn(Cc3cccc(Cl)c3)c(=S)[nH]2)cc1` [Example 62, 2-[(3-Chlorophenyl)methyl]-5-(4-nitrophenyl)-1,2-dihydro-3H-1,2,4-triazole-3-thione]: 256 to 258 °C; for `S=c1[nH]c(-c2cccnc2Cl)nn1Cc1ccccc1` [Example 16, 5-(2-Chloro-3-pyridinyl)-1,2-dihydro-2-(phenylmethyl)-3H-1,2,4-triazole-3-thione]: 155 to 156 °C.
